Experimental data reported in EP0508511B1 (KNOLL AG, priority 1991, dated 1992).

Tested on: wacher normotoner Hunde
Assay: Diastolic blood pressure in conscious normotensive dogs
Type: in vivo
Details: Trandolapril alone, 3 mg/kg/Tag

CCOC(=O)[C@H](CCc1ccccc1)N[C@@H](C)C(=O)N1[C@H](C(=O)O)C[C@H]2CCCC[C@@H]21 [Trandolapril, N-(1s-Carbethoxy-3-phenylpropyl)-S-alanyl-2S,3aR,7aS-octa-hydroindol-2-carbonsäure]
Senkung des diastolischen Blutdruckes: weder Verapamil-SR allein (10 mg/kg/Tag) noch Trandolapril allein (3 mg/kg/Tag) den diastolischen Blutdruck wacher normotoner Hunde zu senken vermögen
